Experimental data from patent publication US12391660B2, “Heteroaromatic acetamide derivative, and preparation and use thereof” (Hangzhou Westan Pharmaceutical Technology Co., Ltd, priority 2019, dated 2025).

biological target: human TRPA1 (Homo sapiens (Human), UniProt O75762); assay: FLIPR assay of inhibitory activity on human TRPA1 (calcium ion flux fluorescence); format: cell-based; conditions: HEK293 cells stably expressing human TRPA1
Procedure: 1. FLIPR Assay of Inhibitory Activity on Human TRPA1
A calcium ion flux fluorescence method (FLIPR assay) was adopted to measure the inhibitory activity of compounds on human TRPA1 channel. The literature reports of Lee and Chen et al. may be referred to for the method [Lee et al. Br J Pharmacol 2008, 153 (8): 1739-1749] [Chen et al. Pain 2011, 152(5):1165-72].
A HEK293 recombinant cell strain stably expressing human TRPA1 (Creative Biogene, NY) was cultured in DMEM (Thermo Fisher Scientific, Shanghai) medium (containing 10% calf serum, 5 μg/ml Blasticidin and 400 ug/ml G418). The incubator was under a condition of 37° C. and air humidity with 5% CO2.
TRPA1 cells were seeded in a 96-well analysis plate at a density of 75,000 cells per well (100 ul/well), and cultured overnight in an incubator at 37° C. and 5% CO2. On the second day, incubation was continued overnight under the same condition to induce the expression of TRPA1 after the culture medium in each well was poured out and a fresh supplement with the same culture medium containing 0.1 μg/ml Tetracycline was added. The further next day, the culture medium was pour out, a DMEM culture solution (also containing 2.5 mM Probenicid) containing 5 μM Fluo-4 AM (Molecular Probes) was added to each well, and incubation was conducted at 37° C. for 1 hour.
The compound was dissolved in 100% DMSO to prepare a 30 mM stock solution which was stored at −20° C. On the day of use, the compound stock solution was thawed at room temperature. Each compound was subjected to 1:5 serial dilution using DMSO medium at a starting concentration of 30 μM with 9 concentration points on a 96-well plate. Each compound was diluted in duplicate for testing. Ruthenium Red was used as the positive control compound and the same dilution was carried out at a starting concentration of 3 μM.
The cell analysis plate was placed in an FLIPR instrument […], and the compound in the compound plate was added to the corresponding hole on the cell analysis plate (First addition) via an automatic program, and the calcium ion fluorescence signal was recorded to determine whether the compound had agonistic activity. After 10 minutes, CaCl2 (Second addition) was added a final concentration of 3 mM to each well to stimulate intracellular calcium flux signals. Ca^++-dependent fluorescence signal was monitored continuously at 538 nm wavelength to analyze the inhibitory activity of the compounds.
The data was collected and analyzed using a FLIPR program. The fluorescence peak value was used to evaluate the inhibitory (or agonistic) activity of the compounds at each concentration. EXCEL and PRISM programs were used to calculate the IC50 value of the compounds.

human TRPA1, sequence (O75762 whole entry): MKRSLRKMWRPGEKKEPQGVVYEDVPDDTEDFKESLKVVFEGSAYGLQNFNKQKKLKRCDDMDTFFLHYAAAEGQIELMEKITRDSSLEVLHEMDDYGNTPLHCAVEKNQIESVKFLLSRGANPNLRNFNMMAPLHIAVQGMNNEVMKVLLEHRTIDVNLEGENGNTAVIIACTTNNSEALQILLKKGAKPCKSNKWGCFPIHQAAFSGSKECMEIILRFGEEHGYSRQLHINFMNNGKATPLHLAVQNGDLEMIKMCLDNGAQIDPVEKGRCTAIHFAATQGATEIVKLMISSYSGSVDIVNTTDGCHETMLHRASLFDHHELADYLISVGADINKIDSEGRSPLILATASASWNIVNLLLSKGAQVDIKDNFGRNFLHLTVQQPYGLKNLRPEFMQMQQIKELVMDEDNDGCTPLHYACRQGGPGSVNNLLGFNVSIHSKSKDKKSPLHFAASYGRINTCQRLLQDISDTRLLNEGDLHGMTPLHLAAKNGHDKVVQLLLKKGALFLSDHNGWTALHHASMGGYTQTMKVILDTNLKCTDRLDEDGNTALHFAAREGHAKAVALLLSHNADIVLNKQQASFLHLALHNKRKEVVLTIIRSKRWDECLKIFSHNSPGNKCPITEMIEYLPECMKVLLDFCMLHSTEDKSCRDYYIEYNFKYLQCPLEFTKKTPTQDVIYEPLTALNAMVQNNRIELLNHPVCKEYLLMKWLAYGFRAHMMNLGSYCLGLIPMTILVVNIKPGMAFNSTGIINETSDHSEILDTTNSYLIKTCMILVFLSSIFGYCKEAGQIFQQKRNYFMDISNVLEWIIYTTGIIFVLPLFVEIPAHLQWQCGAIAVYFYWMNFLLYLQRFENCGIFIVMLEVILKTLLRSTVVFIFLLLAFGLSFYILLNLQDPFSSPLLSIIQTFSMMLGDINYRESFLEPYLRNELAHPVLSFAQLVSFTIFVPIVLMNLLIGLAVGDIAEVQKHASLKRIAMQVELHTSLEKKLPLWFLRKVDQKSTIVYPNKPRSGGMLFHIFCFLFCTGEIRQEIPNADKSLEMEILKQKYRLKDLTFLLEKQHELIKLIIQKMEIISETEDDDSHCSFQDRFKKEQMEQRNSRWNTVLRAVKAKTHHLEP

Row | SMILES | IC50 [nM]
1 | Cn1cc(NC2(C(=O)N3CCC(C(C)(C)C)CC3)CCCC2)nc1C#N [Compound 42, 4-((1-(4-(tert-butyl)piperidine-1-carbonyl)cyclopentyl)amino) -1-methyl-1H-imidazole-2-carbonitrile] | 4650
2 | N#Cc1ccc(OC2(C(=O)N3CCN(c4cccc(C(F)(F)F)n4)CC3)CCCC2)cc1 [Compound 47, 4-((1-(4-(6-(trifluoromethyl)pyridin-2-yl)piperazine-1-carbonyl)cyclopentyl)oxy)benzonitrile] | 38
3 | N#Cc1ccc(OC2(C(=O)N3CCN(c4ccc(C(F)(F)F)cc4)CC3)CCCC2)cc1 [Compound 49] | 325
4 | N#Cc1ccc(OC2(C(=O)N3CCN(c4ccc(C(F)(F)F)nn4)CC3)CCCC2)cc1 [Compound 52, 4-((1-(4-(6-(trifluoromethyl)pyridazin-3-yl)piperazine-1-carbonyl)cyclopentyl)oxy)ben zonitrile] | 465
5 | O=C(N1CCN(c2ccc(C(F)(F)F)nn2)CC1)C1(Oc2ccc([N+](=O)[O-])cc2)CCCC1 [Compound 53, 4-((1-(4-(6-(trifluoromethyl)pyridazin-3-yl)piperazine-1-carbonyl)cyclopentyl)oxy)nitro benzene] | 862
6 | N#Cc1ccc(OC2(C(=O)N3CCN(c4cccc(C(F)(F)F)n4)CC3)CCC2)cc1 [Compound 58, 4-((1-(4-(6-(trifluoromethyl)pyridin-2-yl)piperazine-1-carbonyl)cyclobutyl)oxy)benzo nitrile] | 620
7 | N#Cc1ccc(OC2(C(=O)N3CCN(c4ccc(C(F)(F)F)nn4)CC3)CCCC2)cc1Cl [Compound 60, 2-chloro-4-((1-(4-(6-(trifluoromethyl)pyridazin-3-yl)piperazine-1-carbonyl)cyclopentyl)oxy)benzonitrile] | 847
8 | N#Cc1ccc(OC(C(=O)N2CCN(c3ccc(C(F)(F)F)nn3)CC2)c2ccccc2)cc1 (stereo not shown) [Compound 63] | 560
9 | CC(C)(C)N1CCN(C(=O)C2(Oc3ccc(C(F)(F)F)cc3)CCCC2)CC1 [Compound 64, 4-((1-(4-(tert-butyl)piperazine-1-carbonyl)cyclopentyl)oxy) trifluoromethylbenzene] | 552
10 | Cn1cc(C#N)cc1OC1(C(=O)N2CCC(C(C)(C)C)CC2)CCCC1 [Compound 65, 5-((1-(4-(tert-butyl)piperidine-1-carbonyl)cyclopentyl)oxy)-1-methyl-1H-pyrrole-3-car bonitrile] | 1080
11 | Cn1ccc2cc(SC3(C(=O)N4CCC(C(C)(C)C)CC4)CCCC3)ccc21 [Compound 67, 5-((1-(4-(tert-butyl)piperidine-1-carbonyl)cyclopentyl)sulfanyl)-1-methyl-1H-indole] | 3780
12 | N#Cc1ccc2c(c1)CC(C(=O)N1CCN(c3nccc(C(F)(F)F)n3)CC1)N2 (stereo not shown) [Compound 69, 2-(4-(4-(trifluoromethyl)pyrimidin-2-yl)piperazine-1-carbonyl)-5-cyanoindoline] | 386
13 | N#Cc1ccc2[nH]c(C(=O)N3CCN(c4cccc(C(F)(F)F)n4)CC3)cc2c1 [Compound 71, 2-(4-(6-(trifluoromethyl)pyridin-2-yl)piperazine-1-carbonyl)-1H-5-cyanoindole] | 866
14 | N#Cc1ccc2[nH]c(C(=O)N3CCN(c4ccc(C(F)(F)F)cn4)CC3)cc2c1 [Compound 72, 2-(4-(5-(trifluoromethyl)pyridin-2-yl)piperazine-1-carbonyl)-1H-5-cyanoindole] | 971
15 | Cc1cccc(N2CCN(C(=O)C3Cc4cc(C#N)ccc4O3)CC2)n1 (stereo not shown) [Compound 75] | 285

More lines, in order of falling IC50, values ahead:

Row | IC50 [nM] | SMILES
16 | 261 | N#Cc1ccc2c(c1)CC(C(=O)N1CCN(c3cccc(C(F)(F)F)n3)CC1)O2 (stereo not shown) [Compound 73, 2-(4-(6-(trifluoromethyl)pyridin-2-yl)piperazine-1-carbonyl)-2,3-2H-5-cyanobenzofuran]
17 | 182 | CC(C)(C)C(Oc1ccc(C#N)cc1)C(=O)N1CCN(c2cccc(C(F)(F)F)n2)CC1 (stereo not shown) [Compound 51]
18 | 116 | O=C(C1Cc2cc(Cl)ccc2O1)N1CCN(c2cccc(C(F)(F)F)n2)CC1 (stereo not shown) [Compound 74, 2-(4-(6-(trifluoromethyl)pyridin-2-yl)piperazine-1-carbonyl)-2,3-2H-5-chlorobenzofuran]
19 | 112 | N#Cc1ccc2c(c1)CC(C(=O)N1CCN(c3cccc(C(F)(F)F)n3)CC1)N2 (stereo not shown) [Compound 68, 2-(4-(6-(trifluoromethyl)pyridin-2-yl)piperazine-1-carbonyl)-5-cyanoindoline]
20 | 108 | CC(C)(C)C1CCN(C(=O)C2(Nc3ccc(Cl)cc3)CCCC2)CC1 [Compound 46, 4-((1-(4-(tert-butyl)piperidine-1-carbonyl)cyclopentyl)amino) chlorobenzene]
21 | 105 | CC(C)(C)N1CCN(C(=O)C2(Sc3ccc(C#N)cc3)CCCC2)CC1 [Compound 66, 4-((1-(4-(tert-butyl)piperazine-1-carbonyl)cyclopentyl)sul-fanyl)benzonitrile]
22 | 92 | N#Cc1ccc2c(c1)CC(C(=O)N1CCN(c3cccc(C(F)(F)F)c3)CC1)N2 (stereo not shown) [Compound 70, 2-(4-(3-(trifluoromethyl)phenyl)piperazine-1-carbonyl)-5-cyanoindoline]
23 | 91 | CC(C)(C)C1CCN(C(=O)C(Nc2ccc(C#N)cc2)C(C)(C)C)CC1 (stereo not shown) [Compound 43, 4-((1-(4-(tert-butyl)piperidine-1-carbonyl)tert-butyl)amino) benzonitrile]
24 | 91 | N#Cc1ccc(OC2(C(=O)N3CC4CCC3CN4c3cccc(C(F)(F)F)n3)CCCC2)cc1 (stereo not shown) [Compound 55, 4-((1-(5-(6-(trifluoromethyl)pyridin-2-yl)-2,5-diazabicyclo [2.2.2]octane-2-carbonyl)cyclopentyl)oxy)benzonitrile]
25 | 91 | CC(C)(C)N1CCN(C(=O)C2Cc3cc(C#N)ccc3N2)CC1 (stereo not shown) [Compound 77, 2-(4-(tert-butyl)piperazine-1-carbonyl)-5-cyanoindoline]
26 | 82 | CC(C)(C)C1CCN(C(=O)C2Cc3cc(C#N)ccc3O2)CC1 (stereo not shown) [Compound 79, 2-(4-(tert-butyl)piperidine-1-carbonyl)-2,3-2H-5-cyanoben-zofuran]
27 | 76 | CC(C)(C)C1CCN(C(=O)C2(Oc3ccc(C#N)cc3)CCCC2)CC1 [Compound 56, 4-((1-(4-(tert-butyl)piperidine-1-carbonyl)cyclopentyl)oxy) benzonitrile]
28 | 72 | CC(C)(C)C1CCN(C(=O)C2(Nc3ccc(C(F)(F)F)cc3)CCCC2)CC1 [Compound 45]
29 | 68 | CC(C)(C)N1CCN(C(=O)C2Cc3cc(C#N)ccc3O2)CC1 (stereo not shown) [Compound 80, 2-(4-(tert-butyl)piperazine-1-carbonyl)-2,3-2H-5-cyano-benzofuran]
30 | 65 | Cc1cccc(N2CCN(C(=O)C3(Oc4ccc(C#N)cc4)CCCC3)CC2)c1 [Compound 48, 4-((1-(4-(m-methylphenyl)piperazine-1-carbonyl)cyclopentyl)oxy)benzonitrile]
31 | 51 | CC(C)(C)N1CCN(C(=O)C2(Oc3ccc(C#N)cc3)CCCC2)CC1 [Compound 57, 4-((1-(4-(tert-butyl)piperazine-1-carbonyl)cyclopentyl)oxy) benzonitrile]
